These results are taken from PubChem BioAssay (NCI).

Common to all, as to test: NCI-60 cell line screen, 48 h
The subject of assay [1] is HCT-116 colon.
The subject of assay [2] is NCI-H460 lung.
The test system of assay [3] is LOX IMVI melanoma.
Assay [4] deals with SF-539 CNS.
Assay [5] has as its system SK-MEL-2 melanoma.
Assay [6] relates to MALME-3M melanoma.
Assay [7] deals with HOP-62 NSCLC.
For assay [8], the system named is SW-620 colon.
Assay [9] has as its system K-562 leukemia.
The subject of assay [10] is HS 578T breast.

Where “and” joins values, the source holds several entries; their conditions need not be identical. Equal entries are not always repeated.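 Cultured in 96-well plates, cells were exposed to test compound for 48 hours across five concentrations. GI50 marks 50% less growth. TGI marks complete inhibition of growth.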 Where a SMILES comes first, the peptide text is derived from it. [ ]: non-standard residue; d: D form. The star is where a group is joined. Phe(4-NO2) = N[CH](Cc1ccc([N+](=O)[O-])cc1)C(=O)O; Boc = CC(C)(C)OC(=O)*

Take `Nc1ccc2c(=O)cc(-c3ccc(Br)s3)[nH]c2n1`: the TGI in assay [1] was above 100 µM; in assay [2], above 100 µM; in assay [3] it was above 100 µM; in [4] it was 6.02 µM; in assay [5], above 100 µM; in assay [6] it was above 100 µM. Further, the TGI in assay [7], in [8], in assay [9] and in assay [10] was above 100 µM in each case.

On to `CC(=O)OCC1OC(SC2=NC(=O)CS2)C(OC(C)=O)C(OC(C)=O)C1OC(C)=O` (stereo not given), for which the TGI in assay [2], in assay [3], in [4], in assay [5], in [6] and in assay [7] was above 100 µM each time. For the same molecule, the TGI in [8], in assay [9] and in [10] was above 100 µM in each case. For the same molecule, the GI50 in [5] is > 100 µM and 27.1 µM.

Consider `CCCC1=C(OC)C(=O)c2c(C)cc(Cl)nc2C1=O`, for which the TGI in [1] was 7.26 µM; in [2], 26.6 µM; in assay [3], 5.15 µM; in assay [4], 20.3 µM; in [5] it was 24.4 µM; in assay [6], 9.71 µM. Moreover, the TGI in assay [7] was 29.9 µM; in [8], 10.5 µM; in [10], above 47 µM.

Turning to `CC(C)OP(=O)(OC(C)C)C(C(C)C)N(C)C(N)=NC#N` (stereo not given), the TGI in assay [1], in assay [2], in [3], in assay [4], in assay [5] and in assay [6] was above 100 µM throughout. In addition, the TGI in assay [7], in assay [8], in assay [9] and in assay [10] was above 100 µM in each case.

With `Cc1cc(C)nc(NS(=O)(=O)c2ccc(NNc3c4ccccc4nc4c(C(=O)Nc5ccc(S(=O)(=O)Nc6cc(C)on6)cc5)cccc34)cc2)n1`, the TGI in assay [1] was above 100 µM; in assay [2] it was above 100 µM; in assay [3], 88.8 µM; in assay [4], above 100 µM; in assay [5], 62.5 µM; in assay [6], above 100 µM. The TGI in [7] was above 100 µM; in assay [8] it was above 100 µM; in assay [9], 87.2 µM; in assay [10], above 100 µM.

On to `Oc1cccc2c(Br)ccnc12`, for which the TGI was 12.2 µM in assay [1]; 42 µM in assay [2]; 12.7 µM in assay [3]; above 49.1 µM in assay [4]; 27.1 µM in assay [5]; 21.2 µM in assay [6]. The TGI is above 69 µM in assay [7], 16.7 µM in assay [8], above 22.5 µM in assay [9] and 50.5 µM in [10].

With `Cc1cc2nc3ccccc3n2c2ccccc12`, the TGI in assay [1], in assay [2], in assay [3], in assay [4], in [5] and in assay [6] was above 10 µM each time. In addition, the TGI in assay [7], in [8], in assay [9] and in [10] was above 10 µM each time.

On to `C=CC(C)(C)/C=C/c1ccc(O)cc1`, for which the TGI is above 100 µM in assay [1]; above 100 µM in [2]; 45.6 µM in assay [3]; above 100 µM in assay [4]; 60.5 µM in assay [5]; above 100 µM in assay [6]. The TGI in [7], in [8] and in [10] was above 100 µM each time.

As for `O=C1C=CC(=O)c2c(O)c(N3CCOCC3)c(Cl)c(O)c21`, the TGI is 0.403 µM in assay [1]; 2.71 µM in [2]; 0.419 µM in assay [3]; 1 µM in [4]; 0.765 µM in assay [5]; 0.442 µM in assay [6]. For the same molecule, the TGI in [7] was 2.36 µM; in [8] it was 0.351 µM; in assay [9], above 10 µM; in [10], 1.7 µM.

In the case of `CCOC(=O)CCC(NC(=O)C(Cc1ccc([N+](=O)[O-])cc1)NC(=O)OC(C)(C)C)C(=O)NC(CCC(=O)OCC)C(=O)OCC` (stereo not given) (Boc-[Phe(4-NO2)]-Glu(OEt)-Glu(OEt)-OEt; configuration not given here), the TGI was 38.5 µM in [1]; 57.3 µM in [2]; 25.9 µM in assay [5]; 35 µM in assay [6]; 67.4 µM in assay [7]; 40.2 µM in assay [8]. In assay [10], this molecule had a TGI of 53.1 µM.

`COc1cccc(NC(=O)CC(=O)n2nc(-c3ccccc3)c(N=Nc3ccc(Cl)cc3)c2-c2ccccc2)c1`: the TGI in [1] is 67 µM; in [2], above 92.5 µM; in assay [3], 38.4 µM; in assay [4] it was above 74.8 µM; in assay [5], 89.1 µM; in assay [6], 78.8 µM. Besides, the TGI in [7] was 90.9 µM; in [8], above 100 µM; in assay [9], above 78 µM; in assay [10] it was above 82.3 µM.

As to `CCOC(=O)c1cc2c3c(c(C(C)=O)c(OC)c2[nH]1)N(C(=O)CC)CC3`, the TGI in [1] is 30.9 µM; in assay [2] it was 45.3 µM; in assay [3], 29.6 µM; in [4], 41.7 µM; in [5], 48.3 µM; in assay [6], 35.8 µM. The TGI in assay [7] was 56.9 µM; in assay [8], above 100 µM; in [9], 50.5 µM; in assay [10], 57.9 µM.

Take `COc1cc(S(=O)(=O)Nc2ccc(-c3csc(N4C(=O)C(Cl)C4c4ccccc4O)n3)cc2)ccc1Cl` (stereo not given): the TGI in [1] was above 100 µM; in [2], above 100 µM; in assay [3] it was 3.56 µM; in assay [4], above 100 µM; in assay [5] it was above 100 µM; in assay [6] it was above 100 µM. In addition, the TGI in assay [7], in assay [8], in [9] and in assay [10] was above 100 µM in each case.
